Article PMC6102670, “Three New Highly Oxygenated Germacranolides from Carpesium Divaricatum and Their Cytotoxic Activity” (Molecules : A Journal of Synthetic Chemistry and Natural …, 2018)
Read-outs that look alike come from different tables or passages of the source.

Assays:
Type in all cases: cell-based, Human
Details in all cases: 4 days incubation, mean ± SD, triplicate
[1] = test system: HeLa cervical cancer cell line; assay: MTT cytotoxicity assay, HeLa cells
Experimental: (§1) Cell cultures: Human A549, HepG2, and HeLa cell lines from Cancer Institute and Hospital of Chinese Academy of Medical Sciences (Beijing, China), were cultured in Dulbecco’s modified Eagle’s medium (DMEM, Gibco, CA, USA) supplemented with 10% (v/v) fetal calf serum (Gibco, CA, USA), penicillin G (Macgene, China) 100 units mL^−1 and streptomycin (Macgene, China) 100 μg mL^−1, at 37 °C under 5% CO2.
(§2) Cell viability assay: The assay was run in triplicate. In a 96-well plate, each well was plated with 2 × 10^4 cells. After cell attachment overnight, the medium was removed, and each well was treated with 100 μL of medium containing 0.1% DMSO or different concentrations of the test compounds and the positive control cis-platin. The plate was incubated at 37 °C for 4 days in a humidified, 5% CO2 atmosphere. Cytotoxicity was determined using a modified 3-(4,5-dimethylthiazol-2-yl)-2,5-diphenyltetrazolium bromide (MTT) colorimetric assay. After the addition of a 10 μL MTT solution (5 mg/mL), cells were incubated at 37 °C for 4 h. After adding 150 μL DMSO, cells were shaken to mix thoroughly. The absorbance of each well was measured at 540 nm in a Multiscan photometer.
(§3) Statistical analysis: Values were expressed as mean ± SD. Statistical analyses were performed using the Student’s t-test. Differences were considered significant when associated with a probability of 5% or less (p ≤ 0.05).

[2] = test system: A549 lung cancer cell line; assay: MTT cytotoxicity assay, A549 cells
Experimental: as §1, §2, §3

[3] = test system: Hep G2 hepatocellular cancer cell line; assay: MTT cytotoxicity assay, Hep G2 cells
Experimental: as §1, §2, §3

| SMILES | IC50 ([1]; Homo sapiens, 96 h) | IC50 ([2]; Homo sapiens, 96 h) | IC50 ([3]; Homo sapiens, HepG2, 96 h) | IC50 [1] | IC50 [2] | IC50 ([3]; read-out: IC50 (μM) HepG2) |
| --- | --- | --- | --- | --- | --- | --- |
| C=C1C(=O)OC2C1C(O)C(OC(=O)C(C)CC)C(C)CCC(=O)C(C)(O)C2OC(=O)C(C)CC (stereo not drawn) [Compound 4, divarolide G] | > 40 µM | > 40 µM | > 40 µM | – | – | – |
| N.N.[Cl][Pt][Cl] [cis-platin, reference compound] | – | – | – | 15.3 ± 0.35 µM | 7.9 ± 0.23 µM | 13 ± 1.49 µM |
| C=C1C(=O)O[C@H]2[C@H]1[C@@H](O)[C@H](OC(=O)CC(C)C)[C@H](C)CCC(=O)[C@](C)(O)[C@@H]2OC(=O)CC(C)C [Compound 2, divarolide E] | 16.8 ± 0.27 µM | 30.7 ± 0.51 µM | 7.47 ± 0.21 µM | – | – | – |
| C=C(C)C(=O)O[C@H]1[C@H](O)[C@H]2C(=C)C(=O)O[C@@H]2[C@@H](OC(=O)C(C)C)[C@@](C)(O)C(=O)CC[C@H]1C [Compound 3, divarolide F] | > 40 µM | > 40 µM | > 40 µM | – | – | – |
| C=C1C(=O)O[C@H]2[C@H]1[C@@H](O)[C@H](OC(=O)CC(C)C)[C@H](C)CCC(=O)[C@](C)(O)[C@@H]2OC(=O)C(C)CC (stereo partly drawn) [Compound 5, 4β,8α-dihydroxy-5β-2-methylbutyryloxy-9β-3-methylbutyryloxy-3-oxo-germacran-7β, 12α-olide] | 11.6 ± 1 µM | > 40 µM | 31.64 ± 0.16 µM | – | – | – |
| C=C1C(=O)O[C@H]2[C@H]1[C@@H](O)[C@H](OC(=O)CC(C)C)[C@H](C)CCC(=O)[C@](C)(O)[C@@H]2OC(=O)C(C)C [Compound 1, 4β,8α-dihydroxy-5β-isobutyryloxy-9β-3-methylbutyryloxy-3-oxo-germacran-6α, 12-olide] | 29.39 ± 0.17 µM | > 40 µM | 17 ± 2.23 µM | – | – | – |
